Measured values from patent US20200330615A1, “NONINVASIVE IMAGING OF FOCAL ATHEROSCLEROTIC LESIONS USING FLUORESCENCE MOLECULAR TOMOGRAPHY” (Washington University, priority 2015, published 2020).
Entries after “also recorded” stand apart in the source; their conditions may differ. Bridge positions count the residues as written; N and C are the ends. cypate = near infrared fluorescent dye cypate

Experiments:
[1] = set-up: species or system New Zealand white rabbits; details: rabbit, in vivo
Excerpt: A model of focal atherosclerotic-like plaques in the femoral arteries (located 1 to 1.5 cm from skin surface) of New Zealand white rabbits was used. All animal studies performed were approved by the Washington University Animal Studies Committee. Endothelial denudation of surgically exposed right femoral artery was induced by air desiccation of the luminal surface as described previously.^4 The uninjured left femoral artery served as the internal control. The animals were maintained on a cholesterol-enriched diet (>200 mg dL in blood), and over time the air desiccation led to a focal lesion. In this animal model, anatomical coregistration was not used because the location of the lesion was apparent due to the surgical markings and identification by the surgeon at each imaging session. […] NPR-C (clearance receptor) removes NPs from circulation by receptor mediated endocytosis.^6 A bioconjugate LS668 (Cypate-RSSc[[…]]) (SEQ ID NO:3), consisting of a near infrared (NIR) fluorescent dye cypate conjugated to a targeting peptide, C-type atrial natriuretic peptide, specific for NPR-C was evaluated (FIG. 1A). […] Integrated fluorescence signal (directly related to the quantity of LS668 in tissue) was calculated from each tissue volume (thresholded at above 20% of respective maximum signal) (FIG. 2H). […]

[2] = Ex vivo tissue biodistribution, injured vs control femoral artery; assay type: in vivo, New Zealand white rabbits; details: 24-h post-injection at week 8, n=2
Excerpt: FIG. 2A, FIG. 2B, FIG. 2C, FIG. 2D, FIG. 2E, FIG. 2F, FIG. 2G, FIG. 2H and FIG. 2I depict images showing coronal (depth=7 mm), sagittal and transverse sections of reconstructed fluorescence molecular tomography (FMT) signal from injured artery (FIG. 2A, FIG. 2B, FIG. 2C) and corresponding control artery (FIG. 2D, FIG. 2E, FIG. 2F) from a representative animal (rabbit 1). White lines indicate the position of the respective sagittal and transverse sections. […] FIG. 2H depicts a graph showing time dependent changes in integrated fluorescence signal (mean SD, n=3) for injured and control arteries (*P=0.0283; **P=0.0282). FIG. 2I depicts a graph showing the mean (n=2) fluorescence intensity obtained from the ex vivo injured artery containing the lesion and the control artery.
A model of focal atherosclerotic-like plaques in the femoral arteries (located 1 to 1.5 cm from skin surface) of New Zealand white rabbits was used. All animal studies performed were approved by the Washington University Animal Studies Committee. […] NPR-C (clearance receptor) removes NPs from circulation by receptor mediated endocytosis.^6 A bioconjugate LS668 (Cypate-RSSc[[…]]) (SEQ ID NO:3), consisting of a near infrared (NIR) fluorescent dye cypate conjugated to a targeting peptide, C-type atrial natriuretic peptide, specific for NPR-C was evaluated (FIG. 1A). […]

[3] = tested on: NPR-C expressing macrophages; test: Ex vivo staining of paraffin fixed artery sections with LS668, fluorescence microscopy; set-up: species or system rabbit; fluorescence signal of control artery section after ex vivo staining: dose or concentration left out as unconfirmed; details: 30 min, 37° C.
Description: FIG. 3A, FIG. 3B and FIG. 3C depict images showing ex vivo studies on the paraffin fixed sections of injured (top row) and control artery (bottom row) sections obtained at 8 weeks postsurgery. FIG. 3A depicts bright field images showing IEL, internal elastic lamina; A, adventitia; M, media; 1° NEO, primary neointima. Scale: 500 m. FIG. 3B depicts corresponding fluorescence images (excitation/emission: 710 75 nm 810 90 nm) after ex vivo staining with LS668. Scale: 500 m. FIG. 3C depicts immunohistochemistry on tissue sections with clone RAM11 antibody (1:100 dilution; blue) for macrophages and counterstained with nuclear fast red. Scale: 250 m. Ex vivo histological validation studies were performed on the arteries at week 8 following the final imaging session. Prior to collecting the arterial segments, the vascular system was flushed with saline and then perfusion fixed with 4% paraformaldehyde and paraffin embedded. Tissue sections were deparaffinized for further studies. […] Histology sections were also stained for macrophages with mouse monoclonal antibody to rabbit macrophages (clone RAM11). Positive signal was visualized using alkaline phosphatase-conjugated secondary antibody and blue substrate, and nuclear fast red counterstain. […] Serial sections were also stained for alpha-smooth muscle actin (SMA).

[4] = tested on: C-type natriuretic peptide receptors (NPR-C) on focal atherosclerotic lesions; test: In vivo fluorescence molecular tomography (FMT) of focal atherosclerotic lesions in femoral arteries; set-up: species or system New Zealand white rabbits; details: for integrated fluorescence signal, difference between control and injured arteries, P (unpaired t test, two tailed): n=3
Excerpt: Carotid artery atherosclerosis is classified as an important cause of stroke. Unstable plaque is characterized by an eccentric neo-intimal lesion with a lipid core covered by a thinning cap of smooth muscle cells, active angiogenesis, increased matrix metalloproteinase activity, and translocation of monocyte/macrophages that transform into foam cells. Timely noninvasive imaging that could signal prerupture plaque progression will reduce the morbidity and mortality by allowing early intervention.^1 Although positron emission tomography (PET) and magnetic resonance imaging (MRI) are routinely used for metabolic and morphologic imaging, these modalities are not suited for frequent monitoring or even screening of at-risk patients because of ionizing radiation (PET) and expense (PET, MRI). Transcutaneous Doppler and intravascular ultrasound are insensitive to the subtle molecular changes of critical importance. Fluorescence molecular tomography (FMT) is an emerging optical imaging technology that allows tomographic and quantitative visualization of molecular events in vivo.^2 In this study, a custom built, fiber-based, portable, video-rate FMT system was used for proof-of-principle studies to detect C-type natriuretic peptide receptors (NPR-C) on focal atherosclerotic lesions in the superficial rabbit femoral arteries. The FMT system consisted of a flexible imaging pad (3 cm×3 cm), containing 12 sources 785 nm 20 kHz, and 830 nm 17-kHz laser diodes as excitation source and reference, respectively.^3 The detectors allowed for dynamic concurrent acquisition of frequency encoded fluorescence emission (830 nm; 20 kHz) and transmission reference (830 nm; 17 kHz) signals for the fast generation of ratio-metric data for tomographic reconstruction of the tissue volume. The system could report varying concentrations (1 nM to 1 M) of indocyanine green at various depths up to 13.5 mm with a depth-dependent spatial resolution on the order of 12 mm.^3
A model of focal atherosclerotic-like plaques in the femoral arteries (located 1 to 1.5 cm from skin surface) of New Zealand white rabbits was used. All animal studies performed were approved by the Washington University Animal Studies Committee. Endothelial denudation of surgically exposed right femoral artery was induced by air desiccation of the luminal surface as described previously.^4 The uninjured left femoral artery served as the internal control. The animals were maintained on a cholesterol-enriched diet (>200 mg dL in blood), and over time the air desiccation led to a focal lesion. In this animal model, anatomical coregistration was not used because the location of the lesion was apparent due to the surgical markings and identification by the surgeon at each imaging session. In a clinical setting, coregistration of the FMT probe with the ultra sound (US) probe can be utilized. […] Natriuretic peptides (NPs) play an important role in regulating cardiovascular homeostasis. NPR-C (clearance receptor) removes NPs from circulation by receptor mediated endocytosis.^6 A bioconjugate LS668 (Cypate-RSSc[[…]]) (SEQ ID NO:3), consisting of a near infrared (NIR) fluorescent dye cypate conjugated to a targeting peptide, C-type atrial natriuretic peptide, specific for NPR-C was evaluated (FIG. 1A). […] Both injured and control femoral arteries of three animals were imaged at day 3 and weeks 1, 2, 4, 6, and 8 following the surgery. […]

NPR-C = target: T1, NPR-C (Homo sapiens, UniProt P17342); test: Cellular internalization of LS668 in stably transfected 293T-NPR-C cells (fluorescence microscopy); assay type: cell-based; set-up: cellular internalization in presence of excess C-ANF peptide: dose or concentration left out as unconfirmed
T1 construct: expressed in transfected cells; host or cells: 293T
T1 sequence (P17342 27-541): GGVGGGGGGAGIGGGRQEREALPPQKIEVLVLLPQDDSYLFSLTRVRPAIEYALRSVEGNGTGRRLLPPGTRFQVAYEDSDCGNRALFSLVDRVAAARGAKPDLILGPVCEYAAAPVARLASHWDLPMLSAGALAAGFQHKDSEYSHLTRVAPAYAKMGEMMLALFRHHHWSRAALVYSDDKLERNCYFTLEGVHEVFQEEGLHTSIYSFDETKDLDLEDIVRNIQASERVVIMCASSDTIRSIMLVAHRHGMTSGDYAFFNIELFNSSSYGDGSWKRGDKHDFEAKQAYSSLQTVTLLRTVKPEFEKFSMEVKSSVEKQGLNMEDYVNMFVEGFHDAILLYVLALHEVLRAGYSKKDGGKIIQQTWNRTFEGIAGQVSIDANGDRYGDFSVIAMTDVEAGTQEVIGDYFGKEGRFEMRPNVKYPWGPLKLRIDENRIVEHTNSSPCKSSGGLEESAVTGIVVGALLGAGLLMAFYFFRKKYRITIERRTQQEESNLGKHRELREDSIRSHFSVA

NPR-A = target: T2, NPR-A (Homo sapiens, UniProt P16066); test: Cellular internalization of LS668 in control 293T-NPR-A cells (fluorescence microscopy); assay type: cell-based
T2 construct: expressed in transfected cells; host or cells: 293T
T2 sequence (P16066 33-1061): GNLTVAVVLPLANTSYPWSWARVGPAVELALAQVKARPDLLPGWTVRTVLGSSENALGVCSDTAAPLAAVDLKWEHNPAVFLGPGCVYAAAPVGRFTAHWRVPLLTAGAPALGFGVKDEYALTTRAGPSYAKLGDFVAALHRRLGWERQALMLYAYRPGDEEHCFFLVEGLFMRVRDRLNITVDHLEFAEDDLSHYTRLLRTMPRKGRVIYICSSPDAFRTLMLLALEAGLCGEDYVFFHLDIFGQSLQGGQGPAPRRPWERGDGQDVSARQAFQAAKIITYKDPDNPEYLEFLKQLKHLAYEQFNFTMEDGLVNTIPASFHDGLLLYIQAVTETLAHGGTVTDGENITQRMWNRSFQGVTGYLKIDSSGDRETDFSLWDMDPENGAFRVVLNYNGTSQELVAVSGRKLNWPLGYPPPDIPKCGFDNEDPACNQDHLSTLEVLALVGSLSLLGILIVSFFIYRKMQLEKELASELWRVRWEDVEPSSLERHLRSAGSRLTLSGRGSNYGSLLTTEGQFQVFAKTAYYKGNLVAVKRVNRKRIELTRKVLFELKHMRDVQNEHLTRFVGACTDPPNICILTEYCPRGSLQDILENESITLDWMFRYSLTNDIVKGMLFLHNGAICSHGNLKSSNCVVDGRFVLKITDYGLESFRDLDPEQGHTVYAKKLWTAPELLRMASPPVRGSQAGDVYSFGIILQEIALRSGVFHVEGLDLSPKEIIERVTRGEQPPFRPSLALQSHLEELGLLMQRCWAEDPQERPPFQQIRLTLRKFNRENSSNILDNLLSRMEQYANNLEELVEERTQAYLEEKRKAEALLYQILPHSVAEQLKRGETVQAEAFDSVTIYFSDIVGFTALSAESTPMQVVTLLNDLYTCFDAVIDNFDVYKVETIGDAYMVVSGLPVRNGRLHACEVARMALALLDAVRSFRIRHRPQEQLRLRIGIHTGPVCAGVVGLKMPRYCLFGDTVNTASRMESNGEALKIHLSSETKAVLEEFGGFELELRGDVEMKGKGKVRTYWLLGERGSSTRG

[5] = 0.1 mg kg intravenous, FMT 24 h later

Substance: Cypate-RSSc[CFGGRIDRIGAC] (cypate-RSSCFGGRIDRIGAC-NH2; disulfide 4-15 (inferred); not fully specified) [LS668]
- time at which clearance from blood was achieved [1]: 24 h
- localization into injured femoral artery as compared to control femoral artery [2]: 3.7 fold
- fluorescence signal of control artery section after ex vivo staining ([3]; week 8 control artery): uniform fluorescence signal akin to nonspecific background
- fluorescence signal of injured artery section after ex vivo staining ([3]; LS668 10 M, week 8 injured artery, layers between adventitia and lumen): increased signal
- uptake by tissue surrounding the localized fluorescent region [4, 5]: negligible nonspecific uptake
- uptake in contralateral noninjured control femoral artery [4, 5]: negligible background uptake
- accumulation at focal lesion (reconstructed FMT data) ([4]; 0.1 mg kg intravenous, FMT 24 h later, injured artery, depth of 4 to 16 mm, over 15 mm of length): localized fluorescence signal indicating accumulation of LS668
- integrated fluorescence signal, difference between control and injured arteries, P (unpaired t test, two tailed) ([4]; week 2 after surgery): 0.0283
- integrated fluorescence signal, difference between control and injured arteries, P (unpaired t test, two tailed) ([4]; week 6 after surgery): 0.0282
- cellular internalization in presence of excess C-ANF peptide (NPR-C; 293T-NPR-C cells): Internalization was blocked; also recorded: inhibition of internalization
- cellular internalization (NPR-C; LS668, 30-min incubation at 37° C., 5% CO2, stably transfected 293T-NPR-C cells): selectively internalized; also recorded: cellular internalization
- cellular internalization in control cells (NPR-A): did not internalize; also recorded: absence of internalization
